Experiment [1] deals with HEK293sieSTAT3(Y640F). Briefly: drug sensitivity score (DSS), cytotoxicity CellTox Green (DSS (dimensionless)); higher = more cytotoxic; extreme values may be limits of the assay. To be noted: 72 h; STAT3 variant: Y640F (constitutively active). In short, it runs like this:
(§1)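 A drug sensitivity score, based on the area of the dose-response curve, was calculated in Breeze after normalising values to negative and positive control wells. It came from HEK293 cells carrying a STAT3-dependent luciferase reporter and overexpressing wild-type or mutant STAT3, plated at 20 μl of 100,000 cells/ml onto compounds acoustically pre-plated at 5 concentrations in 10-fold dilutions in 384-well plates. Following 72 hours at 37°C and 5% CO2, CellTox Green fluorescence (485/520 nm) and then CellTiter-Glo luminescence were read on a PHERAstar FS.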

The subject of experiment [2] is HEK293sieSTAT3(wt). Described as above. Conditions: 72 h; STAT3 variant: wild type. In short, it runs like this: as §1
Experiment [3] concerns HEK293sieSTAT3(Y640F). Briefly: drug sensitivity score (DSS), viability CellTiter-Glo (DSS (dimensionless)); higher = more growth inhibition; extreme values may be limits of the assay. To be noted: 72 h; STAT3 variant: Y640F (constitutively active). In short, it runs like this:
as §1
Background: Cellular ATP, detected with luciferase, serves as a proxy for viable cell number.

Experiment [4] has as its system HEK293sieSTAT3(wt). Described as above. To be noted: 72 h; STAT3 variant: wild type. In short, it runs like this: as §1

The structures appear in SMILES notation.

As for `CC(=O)O[C@@]12CO[C@@H]1C[C@H](O)[C@@]1(C)C(=O)[C@H](O)C3=C(C)[C@@H](OC(=O)[C@H](O)[C@@H](NC(=O)OC(C)(C)C)c4ccccc4)C[C@@](O)([C@@H](OC(=O)c4ccccc4)[C@H]21)C3(C)C` [Docetaxel] (top concentration tested 1000 nM), the drug sensitivity score in experiment [1] was 1.47; in experiment [2], 11.3; in experiment [3] it was 22.8; in experiment [4], 31.

`Cc1ccc(-n2nc(C(C)(C)C)cc2NC(=O)Nc2ccc(OCCN3CCOCC3)c3ccccc23)cc1` [Doramapimod] (top concentration tested 10000 nM): the drug sensitivity score came out at 0.14 in experiment [1], 0 in experiment [2], 5.05 in experiment [3] and 3.87 in experiment [4].

In the case of `CN1CCN(c2ccc3nc(-c4c(N)c5c(F)cccc5[nH]c4=O)[nH]c3c2)CC1` [Dovitinib] (top concentration tested 10000 nM), the drug sensitivity score in experiment [1] was determined as 0; in experiment [2], 0; in experiment [3], 0.03; in experiment [4], 0.

For `COc1cccc2c1C(=O)c1c(O)c3c(c(O)c1C2=O)C[C@@](O)(C(=O)CO)C[C@@H]3O[C@H]1C[C@H](N)[C@H](O)[C@H](C)O1` [Doxorubicin] (top concentration tested 1000 nM), the drug sensitivity score was determined as 0 in experiment [1], 0 in experiment [2], 18.6 in experiment [3] and 19.3 in experiment [4].

On to `C[C@H](Nc1ncnc2nc[nH]c12)c1cc2cccc(Cl)c2c(=O)n1-c1ccccc1` [Duvelisib] (top concentration tested 500 nM), for which the drug sensitivity score in experiment [1] was determined as 0; in experiment [2], 0; in experiment [3] it was 3.95; in experiment [4] it was 2.36.

On to `Cc1cc(Nc2cc(N3CCN(C)CC3)nc(/C=C/c3ccccc3)n2)n[nH]1` [ENMD-2076] (top concentration tested 10000 nM), for which the drug sensitivity score in experiment [1] was found to be 0.61; in experiment [2], 5.35; in experiment [3], 9.67; in experiment [4], 10.7.

For the compound `Cc1cc(C)c(CNC(=O)c2cc(-c3ccc(CN4CCOCC4)cc3)cc3c2cnn3C2CCCC2)c(=O)[nH]1` [EPZ-5687] (top concentration tested 10000 nM), the drug sensitivity score in experiment [1], in experiment [2], in experiment [3] and in experiment [4] was 0 throughout.

On to `COC(=O)N[C@@H](C)CNc1nccc(-c2cn(C(C)C)nc2-c2cc(Cl)cc(NS(C)(=O)=O)c2F)n1` [Encorafenib] (top concentration tested 1000 nM), for which the drug sensitivity score was determined as 0 in experiment [1], 0 in experiment [2], 0.92 in experiment [3] and 3.05 in experiment [4].

Consider `Nc1ccccc1NC(=O)c1ccc(CNC(=O)OCc2cccnc2)cc1` [Entinostat] (top concentration tested 10000 nM), for which the drug sensitivity score in experiment [1] came to 0.1; in experiment [2], 1.29; in experiment [3], 8.12; in experiment [4], 8.98.

With `c1cn2cc(-c3ccc4cn[nH]c4c3)nc(Nc3ccc(N4CCOCC4)cc3)c2n1` [Entospletinib] (top concentration tested 5000 nM), the drug sensitivity score in experiment [1], in experiment [2], in experiment [3] and in experiment [4] was 0 throughout.

Turning to `CNC(=O)c1ccc(N2C(=S)N(c3ccc(C#N)c(C(F)(F)F)c3)C(=O)C2(C)C)cc1F` [Enzalutamide] (top concentration tested 10000 nM), the drug sensitivity score in experiment [1] is 0; in experiment [2] it was 0; in experiment [3] it was 0.6; in experiment [4] it was 0.

Take `Cn1cc(C2=C(c3cn(C4CCN(Cc5ccccn5)CC4)c4ccccc34)C(=O)NC2=O)c2ccccc21` [Enzastaurin] (top concentration tested 10000 nM): the drug sensitivity score in experiment [1] amounted to 0; in experiment [2] it was 0; in experiment [3], 1.73; in experiment [4], 1.34.

`NS(=O)(=O)NCCNc1nonc1/C(=N/O)Nc1ccc(F)c(Br)c1` [Epacadostat] (top concentration tested 10000 nM): the drug sensitivity score came to 0 in experiment [1], 0 in experiment [2], 1.76 in experiment [3] and 0.37 in experiment [4].

Turning to `C#Cc1cccc(Nc2ncnc3cc(OCCOC)c(OCCOC)cc23)c1` [Erlotinib] (top concentration tested 10000 nM), the drug sensitivity score in experiment [1] is 0; in experiment [2], 0; in experiment [3] it was 3.21; in experiment [4], 2.99.

As to `C[C@]12CC[C@@H]3c4ccc(OC(=O)N(CCCl)CCCl)cc4CC[C@H]3[C@@H]1CC[C@@H]2O` [Estramustine] (top concentration tested 10000 nM), the drug sensitivity score is 0 in experiment [1], 0.3 in experiment [2], 0.65 in experiment [3] and 0 in experiment [4].

As for `COc1cc([C@@H]2c3cc4c(cc3[C@@H](O[C@@H]3O[C@@H]5CO[C@@H](C)O[C@H]5[C@H](O)[C@H]3O)[C@H]3COC(=O)[C@H]23)OCO4)cc(OC)c1O` [Etoposide] (top concentration tested 10000 nM), the drug sensitivity score was found to be 3.46 in experiment [1], 7.94 in experiment [2], 17.6 in experiment [3] and 20 in experiment [4].

Regarding `CO[C@H]1C[C@@H]2CC[C@@H](C)[C@@](O)(O2)C(=O)C(=O)N2CCCC[C@H]2C(=O)O[C@H]([C@H](C)C[C@@H]2CC[C@@H](OCCO)[C@H](OC)C2)CC(=O)[C@H](C)/C=C(\C)[C@@H](O)[C@@H](OC)C(=O)[C@H](C)C[C@H](C)/C=C/C=C/C=C/1C` [Everolimus] (top concentration tested 100 nM), the drug sensitivity score in experiment [1] was 0; in experiment [2] it was 0; in experiment [3] it was 8.23; in experiment [4], 11.3.

With `C=C1C[C@@H]2[C@H](CC[C@]3(C)C(=O)CC[C@@H]23)[C@@]2(C)C=CC(=O)C=C12` [Exemestane] (top concentration tested 10000 nM), the drug sensitivity score in experiment [1] turned out to be 0; in experiment [2], 0; in experiment [3] it was 3.39; in experiment [4], 3.65.

`Cc1nc(C(=O)NCC(=O)O)c(O)c2ccc(Oc3ccccc3)cc12` [FG-4592] (top concentration tested 10000 nM): the drug sensitivity score in experiment [1] came to 0; in experiment [2] it was 0; in experiment [3], 1.3; in experiment [4], 2.23.

As for `CCn1c(=O)c(-c2ccc(Cl)cc2Cl)cc2cnc(Nc3ccc(N4CCNCC4)c(F)c3)nc21` [FRAX486] (top concentration tested 5000 nM), the drug sensitivity score in experiment [1] came out at 0; in experiment [2] it was 6.75; in experiment [3] it was 6.38; in experiment [4], 9.57.

Take `O=S(=O)(c1cccc2cnccc12)N1CCCNCC1` [Fasudil] (top concentration tested 50000 nM): the drug sensitivity score in experiment [1] is 2.11; in experiment [2], 4.45; in experiment [3], 4.74; in experiment [4], 3.23.

Take `Cc1cnc(Nc2ccc(OCCN3CCCC3)cc2)nc1Nc1cccc(S(=O)(=O)NC(C)(C)C)c1` [Fedratinib] (top concentration tested 10000 nM): the drug sensitivity score in experiment [1] came to 5.36; in experiment [2], 9.22; in experiment [3], 7.35; in experiment [4], 8.5.

With `CON(C)C(=O)N1N=C(c2cc(F)ccc2F)S[C@@]1(CCCN)c1ccccc1` [Filanesib] (top concentration tested 1000 nM), the drug sensitivity score was determined as 0.58 in experiment [1], 17 in experiment [2], 15 in experiment [3] and 21.2 in experiment [4].

As for `O=C(Nc1nc2cccc(-c3ccc(CN4CCS(=O)(=O)CC4)cc3)n2n1)C1CC1` [Filgotinib] (top concentration tested 10000 nM), the drug sensitivity score in experiment [1] turned out to be 5.91; in experiment [2] it was 6.22; in experiment [3], 8.86; in experiment [4], 6.84.

As to `CC(C)(C)NC(=O)[C@H]1CC[C@H]2[C@@H]3CC[C@H]4NC(=O)C=C[C@]4(C)[C@H]3CC[C@]12C` [Finasteride] (top concentration tested 10000 nM), the drug sensitivity score was 0.18 in experiment [1], 1.18 in experiment [2], 3.82 in experiment [3] and 1.63 in experiment [4].

On to `CCCCCCCCc1ccc(CCC(N)(CO)CO)cc1` [Fingolimod] (top concentration tested 10000 nM), for which the drug sensitivity score is 5.85 in experiment [1], 7.2 in experiment [2], 6.17 in experiment [3] and 8.27 in experiment [4].

Consider `O=c1[nH]c(=O)n([C@H]2C[C@H](O)[C@@H](CO)O2)cc1F` [Floxuridine] (top concentration tested 10000 nM), for which the drug sensitivity score amounted to 0.42 in experiment [1], 1.28 in experiment [2], 27.2 in experiment [3] and 29 in experiment [4].

For the compound `Nc1nc(F)nc2c1ncn2[C@@H]1O[C@H](CO)[C@@H](O)[C@@H]1O` [Fludarabine] (top concentration tested 10000 nM), the drug sensitivity score was 0 in experiment [1], 0 in experiment [2], 0.19 in experiment [3] and 3.07 in experiment [4].

For the compound `O=c1[nH]cc(F)c(=O)[nH]1` [Fluorouracil] (top concentration tested 10000 nM), the drug sensitivity score in experiment [1] stood at 0; in experiment [2], 0; in experiment [3], 6.62; in experiment [4], 6.27.

`CC(C)C(=O)Nc1ccc([N+](=O)[O-])c(C(F)(F)F)c1` [Flutamide] (top concentration tested 10000 nM): the drug sensitivity score in experiment [1] came out at 0; in experiment [2] it was 0; in experiment [3], 0.25; in experiment [4], 0.

`COc1cc2c(Oc3ccc(NC(=O)C4(C(=O)Nc5ccc(F)cc5)CC4)cc3F)ccnc2cc1OCCCN1CCOCC1` [Foretinib] (top concentration tested 1000 nM): the drug sensitivity score in experiment [1] stood at 0; in experiment [2] it was 5.97; in experiment [3], 6.63; in experiment [4], 5.99.

Take `COc1cc(Nc2ncc(F)c(Nc3ccc4c(n3)N(COP(=O)(O)O)C(=O)C(C)(C)O4)n2)cc(OC)c1OC` [Fostamatinib] (top concentration tested 2500 nM): the drug sensitivity score in experiment [1] was determined as 2.07; in experiment [2], 3.18; in experiment [3], 4.33; in experiment [4], 4.18.

For the origin of these results see the supplement of paper PMC7108870.
